Measured values as given in PMC7247319, “The mitochondria-targeted peptide SS-31 binds lipid bilayers and modulates surface electrostatics as a key component of its mechanism of action” (The Journal of Biological Chemistry, 2020).
Where a SMILES comes first, the peptide text is derived from it. [ ]: non-standard residue; d: D form. Dmt = Cc1cc(O)cc(C)c1C[C@H](N)C(=O)O

Tests used:
Experiment in all cases: SS-31 binding isotherms by endogenous 2′,6′-Dmt fluorescence (peptide and lipid titrations)
[1] = system: LUVs containing 20 mol % MLCL in a POPC background; conditions: 20% MLCL/POPC LUVs, 20 mM HEPES-KOH pH 7.5, Scatchard and Langmuir fits of fluorescence isotherms
Text: (§1) The interaction of basic amphipathic peptides with negatively charged membranes depends on the electric field originating from the bilayer surface as well as specific electrostatic and hydrophobic interactions between the peptide and lipids (Fig. S2). The first objective of this study was to quantitatively evaluate the binding of SS-31 to model membranes with specific lipid composition. For spectroscopic analysis of SS-31 binding, we made use of the endogenous spectral properties of the 2′,6′-dimethyltyrosine (2′,6′-Dmt) side chain at the second position in the peptide. Our initial spectral characterization of SS-31 confirmed the feasibility of using endogenous peptide fluorescence to quantify peptide-membrane interactions (supporting Results A and B and Figs. S3 and S4). We therefore proceeded to measure the binding of SS-31 to large unilamellar vesicles (LUVs) containing anionic lipids in a host background of the zwitterionic lipid 1-palmitoyl-2-oleoyl-sn-glycero-3-phosphocholine (POPC, 16:0/18:1 PC). The anionic lipids included 1′,3′-bis[1,2-dioleoyl-sn-glycero-3-phospho]-glycerol (tetraoleoylcardiolipin (TOCL), all acyl chains 18:1), monolysocardiolipin (MLCL, all acyl chains 18:1), or 1-palmitoyl-2-oleoyl-sn-glycero-3-phosphoglycerol (POPG, 16:0/18:1 PG). Binding measurements were performed using two complementary approaches: (i) titration of fixed concentrations of LUVs with peptide and (ii) titration of fixed concentrations of peptide with LUVs (supporting Results C and Fig. S5). […]
(§2) Figure 2. […] A–C, fluorescence-based measurements. […] Statistical differences within each data set were determined relative to TOCL-containing membranes: •, p < 0.05; ••, p < 0.01.
(§3) To obtain equilibrium binding parameters n (the number of lipid molecules per peptide bound) and KD (the dissociation constant), we analyzed binding isotherm data by Scatchard analysis (Fig. 2C) and by fits of the data to Langmuir adsorption models (Equations S2 and S3 for peptide and lipid titrations, respectively). […]

[2] = system: LUVs containing 20 mol % POPG in a POPC background; conditions: 20% POPG/POPC LUVs, 20 mM HEPES-KOH pH 7.5, Scatchard and Langmuir fits of fluorescence isotherms
Text: as §1, §2, §3

[3] = system: LUVs containing 20 mol % TOCL in a POPC background; conditions: 20% TOCL/POPC LUVs, 20 mM HEPES-KOH pH 7.5, Scatchard and Langmuir fits of fluorescence isotherms
Text: as §1, §2, §3

SMILES: Cc1cc(O)cc(C)c1C[C@H](NC(=O)[C@H](N)CCCNC(=N)N)C(=O)N[C@@H](CCCCN)C(=O)N[C@@H](Cc1ccccc1)C(N)=O [SS-31, D-Arg-2′6′-dimethyl-Tyr-Lys-Phe-NH2] (H-[dR][Dmt]KF-NH2)
- n (number of lipid molecules per peptide bound), average lipid/peptide stoichiometry [1]: 7.4
- n (number of lipid molecules per peptide bound), average lipid/peptide stoichiometry [2]: 15.4
- n (number of lipid molecules per peptide bound), average lipid/peptide stoichiometry [3]: 6.9
